Consider 26 molecules from patent US7541141B2, “Method of using estrogen-related receptor alpha (ERRα) status to determine prognosis, treatment strategy and predisposition to breast cancer, and method of using ERRα as a therapeutic target for the treatment of breast cancer” (Wisconsin Alumni Research Foundation, priority 1997, dated 2009).

T1: ERRα1 (Homo sapiens, UniProt P11474)
T1 construct: expressed in transfected cells; host or cells: COS cells (whole-cell extract)
T1 sequence (P11474 1-423): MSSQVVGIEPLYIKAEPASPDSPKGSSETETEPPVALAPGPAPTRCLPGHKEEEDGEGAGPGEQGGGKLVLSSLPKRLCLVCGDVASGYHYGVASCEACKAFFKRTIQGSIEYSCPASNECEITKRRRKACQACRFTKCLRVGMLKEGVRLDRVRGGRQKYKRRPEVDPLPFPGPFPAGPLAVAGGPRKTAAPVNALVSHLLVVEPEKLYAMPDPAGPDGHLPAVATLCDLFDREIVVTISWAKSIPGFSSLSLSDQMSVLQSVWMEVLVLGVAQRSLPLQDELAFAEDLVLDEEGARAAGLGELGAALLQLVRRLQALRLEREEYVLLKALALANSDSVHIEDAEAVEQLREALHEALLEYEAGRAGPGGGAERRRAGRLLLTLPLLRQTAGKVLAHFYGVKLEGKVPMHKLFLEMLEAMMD

B1: ERRα176-423: amino-terminal-deleted ERRα1 variant (residues 76-423) lacking the A/B domain (protein)
chain: MKRLCLVCGDVASGYHYGVASCEACKAFFKRTIQGSIEYSCPASNECEITKRRRKACQACRFTKCLRVGMLKEGVRLDRVRGGRQKYKRRPEVDPLPFPGPFPAGPLAVAGGPRKTAAPVNALVSHLLVVEPEKLYAMPDPAGPDGHLPAVATLCDLFDREIVVTISWAKSIPGFSSLSLSDQMSVLQSVWMEVLVLGVAQRSLPLQDELAFAEDLVLDEEGARAAGLGELGAALLQLVRRLQALRLEREEYVLLKALALANSDSVHIEDAEAVEQLREALHEALLEYEAGRAGPGGGAERRRAGRLLLTLPLLRQTAGKVLAHFYGVKLEGKVPMHKLFLEMLEAMMD
B2: ERRα11-173: carboxyl-terminal-deleted ERRα1 variant (residues 1-173) retaining A/B and DNA binding domains, lacking E/F domains (protein)
chain: MSSQVVGIEPLYIKAEPASPDSPKGSSETETEPPVALAPGPAPTRCLPGHKEEEDGEGAGPGEQGGGKLVLSSLPKRLCLVCGDVASGYHYGVASCEACKAFFKRTIQGSIEYSCPASNECEITKRRRKACQACRFTKCLRVGMLKEGVRLDRVRGGRQKYKRRPEVDPLPFP

One data set concerns the target T1, ERRα1. The data set can be described thus: Quantitative competition EMSA of unlabeled oligodeoxynucleotides against 32P-labeled reference consensus ERRE. The class given is binding. Particulars: relative to reference consensus ERRE; reciprocal of fold molar excess of competitor reducing shifted probe by 50%; COS whole cell extracts. How it is done:
Quantitative gel-mobility-shift assays: DNA binding was assayed in 20 μl of a buffer containing 10 mM HEPES (pH 7.5), 2.5 mM MgCl2, 50 μM EDTA, 1 mM dithiothreitol, 6% glycerol and 100 ng/μl of poly(dI-dC)·poly(dI-dC). Competition binding assays included unlabeled competitor oligonucleotide as well. […] Supershift assays contained 1 μl of a 1:10 dilution of whole antiserum. All components were mixed prior to the addition of protein. The final mixtures were incubated on ice for 15 minutes, followed by 25° C. for 15 minutes prior to separation by electrophoresis at 4° C. for 2 hours through a non-denaturing 4% polyacrylamide gel at 160 volts. Quantitation was performed with a PhosphorImager (Molecular Dynamics). The relative affinities of different sequences for binding by the protein were determined from the moles of unlabeled competitor oligonucleotide needed to reduce the fraction of probe shifted to 50%.
Knowing which genes are transcriptionally modulated by ERR may help to clarify ERR's potential role in breast cancer. To identify potential ERR-responsive genes, we examined the transcriptional regulatory regions of genes known to be involved in breast cancer for sequences capable of being bound by ERR. […] This sequence is a half-site of the consensus palindromic estrogen response element (ERE, 5′-AGGTCAnnnTGACCT (SEQ ID NO:32)) with a 3-base pair extension at the 5′ end. Searching sequence databases (the EPD Eukaryotic Promoter Database available on line from the Swiss Institute of Bioinformatics (17), and Genbank available on line from the National Center for Biotechnology Information, National Library of Medicine, National Institute of Health) facilitated the location of this consensus and similar non-consensus ERREs in human gene promoters, which were selected and tested experimentally for whether they contained authentic ERR-binding sites. Using quantitative competitive EMSAs performed similarly as described in FIG. 5 of Example 1, we identified many authentic ERR-binding sites that exist in the promoters of important genes implicated in breast cancer. These sequences and ERR's affinity for binding these sites relative to a reference consensus ERRE are shown in Table 3 (Location, distance of the ERRE sequence from the gene's transcriptional start site; Ref, reference of the gene's prognostic status or relevance to human breast cancer).
In general terms: Mobility shift assays separate free from complexed probe on a gel.
For the molecule “CCTGAGACTCTACCAAGGTCAGAAATGCTGCAA (chemistry not given here) [aromatase]”, the “Relative binding affinity (RBA) of ERRα1 for DNA sequence” value (“Relative binding affinity (RBA)” for short) was determined as 0.17.
On the same count and under the same terms, to “TCCCTTCCCCCTGCAAGGTCACGGTGGCCACCC (chemistry not given here) [pS2 site 1]” belongs 0.49; to “AAAGGAACTTTCCCAAGGTCACAGAGCTGAGCT (chemistry not given here) [ErbB2]”, 1.01; to “GTAATTGCTGTACGAAGGTCAGAATCGCTACCT (chemistry not given here) [BRCA1]”, 0.17.
Regarding “CCTCAGAGTGGCTCAGGGTCAGAGAAGGTAGAG (chemistry not given here) [Pr1 site 3]”, the “Relative binding affinity (RBA)” value stood at 0.07.
“TCGAGAGCAGTGGCGATTTGTCAAGGTCACACAGTGAG (DNA, backbone not given here) [Reference ERRE, reference compound]”: the “Relative binding affinity (RBA)” value is recorded as 1.00.
Turning to “CTGTCGGCAGGAACAAGGTCACCCCTTGGCGTT (chemistry not given here) [IGF2 site 2]”, the “Relative binding affinity (RBA)” value was determined as 0.25.
With “GCTCCGGCTCGCTGAAGGTCACAGCCGAGGCGA (chemistry not given here) [IGF1R]”, the “Relative binding affinity (RBA)” value is recorded as 0.36.
Same read-out and setting: to “ATGTTTGGTATGAAAAGGTCACATTTTATATTC (chemistry not given here) [ERα]” belongs 0.11.
The same measure, in the same setting: to “GGTGCTCCCACTTAGAGGTCACGCGCGGCGTCG (chemistry not given here) [ERβ]” belongs 0.54.
The same measure, in the same setting: the figure for “CAAATAATGGGCTGAAGGTGAACTATCTTTACT (chemistry not given here) [EGF]” is 0.14; for “AGAACATCCCTTTTAAGGTCAGAACAAAGGTAT (chemistry not given here) [BRCA2]” it is 0.08.
With “GTAGGACCTGGATTAAGGTCAGGTTGGAGGAGA (chemistry not given here) [pS2 site 2]”, the “Relative binding affinity (RBA)” value was 0.12.
On the same count and under the same terms, the figure for “TCCTAAGGACTGTCAAGGTCATCAAATACAAGG (chemistry not given here) [PgR site 3]” is 1.45.
Same read-out and setting: to “TGTCCATTTTCTTCTAGGTCAACCCCAATGGTA (chemistry not given here) [Pr1 site 1]” belongs 0.06; to “GCGAGGAAAGCGTGAAGGTGATTTCAGTTAATT (chemistry not given here) [cyclin D1]”, 0.07; to “CAAATTTGAAACTAAAGGTCACAGGCTGCTTTA (chemistry not given here) [Pr1 site 2]”, 0.33.
Turning to “AAAATTGTTTTGTCTAGGTCATTTGCATTTTCA (chemistry not given here) [PgR site 1]”, the “Relative binding affinity (RBA)” value is recorded as 0.14.
With “GGTGGACGCTGCTGAAGGTGAGCGAGACCCCGG (chemistry not given here) [IGF2 site 3]”, the “Relative binding affinity (RBA)” value was 0.06.
The same measure, in the same setting: the figure for “TGGCATATTGGGTGAAGGTCAAGGGAGTGGCTT (chemistry not given here) [Cathepsin D]” is 0.49; for “GGGAGTTCAGGGTAAAGGTCACGGGGCCGGGGC (chemistry not given here) [hMDM2]” it is 0.35; for “TCCTTGCTAAACCCAAGGTCATAAATCTTTTCT (chemistry not given here) [PgR site 2]” it is 0.91.
The same measure, in the same setting: the figure for “CTCCCATCTCACTTAAGGTCAAAGCCAGGGTCC (chemistry not given here) [elk1]” is 0.22.

The subject of the next data set is ERE-dependent transcription in MCF-7 cells. The data set can be described thus: p3xERE-TK-luc luciferase reporter, transient transfection. In kind it is cell-based, human. Particulars: 0.12 or 0.25 μg expression plasmid, whole FBS, 48 h. How it is done: Transient Transfections and Luciferase Assays: To assess the role ERRα plays in regulating transcription of an ERE-containing promoter, MCF-7 or HeLa cells grown in 12-well tissue culture plates were co-transfected in parallel with 0.5 μg of pTK-luc versus p3xERE-TK-luc along with the indicated amounts of the empty cloning vector pcDNA3.1, the ERRα1 expression plasmid pcDNA3.1-hERRα1, or mutant variants thereof. Transfections were performed with the aid of the TransIT LT1 transfection reagent (PanVera, Madison, Wis.) as previously described (35). To examine the effects of ER ligands, cells were maintained in stripped medium for 48 h before transfection and the addition of 17β-estradiol (E2) (Sigma) or the pure anti-estrogen ICI-182,780 (Astra Zeneca, London, UK) dissolved in ethanol and diluted in medium to obtain the indicated concentrations. Cells were harvested 48 h post-transfection, and lysates were assayed for luciferase activity normalized to protein concentration as previously described (36).
ERRα Represses Transcription in MCF-7 Cells: Because ERRα can interfere with the binding of ERα to this ERE, might it affect estrogen-responsive transcription? To answer this question, we co-transfected ERα-positive mammary MCF-7 cells in parallel with p3xERE-TK-luc, a reporter plasmid containing three tandem copies of this ERE (FIG. 14A) or the ERE-negative control plasmid, pTK-luc, together with 0.12 or 0.25 μg of the ERRα1 expression plasmid, pcDNA3.1-hERRα1, or the empty parental expression plasmid, pcDNA3.1. After incubation for 48 h in medium containing whole FBS, the cells were harvested and assayed for luciferase activity. The presence of the EREs conferred an about 150-fold increase in transcriptional activity above the level observed in the cells transfected with the ERE-negative reporter plasmid (FIG. 14B). […] Thus, ERRα inhibits the estrogen-responsive activation of transcription from this ERE-containing promoter in this ER-positive MCF-7 cell line.
ERRα Modulates Estrogen-responsiveness in MCF-7 Cells: To directly examine the effect of ERRα on the response to estrogen, MCF-7 cells were cultured in medium containing estrogen-free charcoal-stripped FBS and cotransfected as described above but in the absence or presence of E2. […] Once again, overexpression of ERRα repressed ERE-dependent transcription approximately 3-fold while having little if any effect on transcription of the control reporter (FIG. 15A).
A general note: A reporter such as luciferase makes a cellular process visible.
Regarding B1, the “Repression of ERE-dependent transcription by overexpression” value was 2-3 fold.
On the same count and under the same terms, the entry for B2 is “failed to repress”.

Still in this data set, the particulars now being: 1×10^−8 M E2, charcoal-stripped FBS.
On to `C[C@]12CC[C@@H]3c4ccc(O)cc4CC[C@H]3[C@@H]1CC[C@@H]2O` [E2, 17β-estradiol, reference compound], for which the “Additional stimulation of ERE-dependent transcription over level with 10^−10 M E2” value is 3 fold.

Staying with this data set, now noted: 1×10^−8 M E2, charcoal-stripped FBS, 48 h.
On to `C[C@]12CC[C@@H]3c4ccc(O)cc4CC[C@H]3[C@@H]1CC[C@@H]2O` [E2, 17β-estradiol, reference compound], for which the “ERE-dependent transcription above activity without exogenous E2” value is “approximately 30 fold”.

The data set is the same for the next values; noted with them: 1×10^−10 M E2, charcoal-stripped FBS, 48 h.
On to `C[C@]12CC[C@@H]3c4ccc(O)cc4CC[C@H]3[C@@H]1CC[C@@H]2O` [E2, 17β-estradiol, reference compound], for which the “Induction of transcriptional activity of ERE-containing reporter above level without exogenous E2” value is “approximately 10 fold”.
